According to US10005767B2, “Compositions and methods for inhibition of the JAK pathway” (Rigel Pharmaceuticals, Inc., priority 2009, dated 2018):

Tested on: human primary T-cells, IL-2 stimulated proliferation (JAK-1 and JAK-3 dependent; reported as JAK3 activity)
Assay: Human primary T-cell proliferation stimulated by IL-2 (Example 3)
Format: cell-based
Conditions: Homo sapiens, T-cell, tested under conditions described in Example 3 (IL-2 stimulated human primary T-cell proliferation); read-out: ability to inhibit JAK3 activity, IC50 range (Table V)
In short: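 Peripheral-blood human T-cells pre-activated via TCR/CD28, IL-2-starved overnight, then cultured 72 h at 37 °C with compound in Yssel's medium containing IL-2 (80 U/mL in cell suspension). Proliferation read as viable-cell ATP by CellTiter-Glo luminescence; reduction versus control taken as JAK pathway inhibition.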

First: COCCOc1ccc(Nc2ncc(C)c(Nc3ccc4oc(=O)[nH]c4c3)n2)cc1C(F)(F)F [Compound I-165, 5-{2-[4-(2-Methoxy-ethoxy)-3-trifluoromethyl-phenylamino]-5-methyl-pyrimidin-4-ylamino}-3H-benzooxazol-2-one]
Second: CCOc1ccc(Nc2ncc(C)c(Nc3ccc4oc(=O)[nH]c4c3)n2)cc1C(F)(F)F [Compound I-168, 5-[2-(4-Ethoxy-3-trifluoromethyl-phenylamino)-5-methyl-pyrimidin-4-ylamino]-3H-benzooxazol-2-one]
The IC50 of the first is lower: less than 0.5 µM for the first, 0.5 to 5 µM for the second. The first is the more potent here.

`Cc1cc(Nc2ncc(C)c(Nc3ccc4oc(=O)[nH]c4c3)n2)ccc1C(C)C` [Compound I-166, 5-[2-(4-Isopropyl-3-methyl-phenylamino)-5-methyl-pyrimidin-4-ylamino]-3H-benzooxazol-2-one] and `Cc1ccc(Nc2ncc(C)c(Nc3ccc4oc(=O)[nH]c4c3)n2)cc1C` [Compound I-178, 5-[2-(3,4-Dimethyl-phenylamino)-5-methyl-pyrimidin-4-ylamino]-3H-benzooxazol-2-one] cannot be ordered by IC50: less than 0.5 µM for the first, less than 0.5 µM for the second.

`Cc1cnc(Nc2ccc(C(F)(F)F)c(Cl)c2)nc1Nc1ccc2oc(=O)[nH]c2c1` [Compound I-167, 5-[2-(3-Chloro-4-trifluoromethyl-phenylamino)-5-methyl-pyrimidin-4-ylamino]-3H-benzooxazol-2-one] and `CC(=O)Nc1ccc(Nc2ncc(C)c(Nc3ccc4oc(=O)[nH]c4c3)n2)cc1C(F)(F)F` [Compound I-177, N-{4-[5-Methyl-4-(2-oxo-2,3-dihydro-benzooxazol-5-ylamino)-pyrimidin-2-ylamino]-2-trifluoromethyl-phenyl}-acetamide] cannot be ordered by IC50: less than 0.5 µM for the first, less than 0.5 µM for the second.

`Cc1cnc(Nc2cc(C(F)(F)F)cc(C(F)(F)F)c2)nc1Nc1ccc2oc(=O)[nH]c2c1` [Compound I-169, 5-[2-(3,5-Bis-trifluoromethyl-phenylamino)-5-methyl-pyrimidin-4-ylamino]-3H-benzooxazol-2-one] and `Cc1cnc(Nc2cccc(Cl)c2)nc1Nc1ccc2oc(=O)[nH]c2c1` [Compound I-173, 5-[2-(3-Chloro-phenylamino)-5-methyl-pyrimidin-4-ylamino]-3H-benzooxazol-2-one] cannot be ordered by IC50: less than 0.5 µM for the first, less than 0.5 µM for the second.

First: Cc1cc(Nc2ncc(C)c(Nc3ccc4oc(=O)[nH]c4c3)n2)ccc1C(=O)O [Compound I-170, 2-Methyl-4-[5-methyl-4-(2-oxo-2,3-dihydro-benzooxazol-5-ylamino)-pyrimidin-2-ylamino]-benzoic acid]
Second: CCNC(=O)c1ccc(Nc2ncc(C)c(Nc3ccc4oc(=O)[nH]c4c3)n2)cc1C [Compound I-171, N-Ethyl-2-methyl-4-[5-methyl-4-(2-oxo-2,3-dihydro-benzooxazol-5-ylamino)-pyrimidin-2-ylamino]-benzamide]
The IC50 of the first is higher: greater than 10 µM for the first, less than 0.5 µM for the second.

`Cc1cnc(Nc2ccc(Cl)cc2)nc1Nc1ccc2oc(=O)[nH]c2c1` [Compound I-172, 5-[2-(4-Chloro-phenylamino)-5-methyl-pyrimidin-4-ylamino]-3H-benzooxazol-2-one] and `Cc1cnc(Nc2ccccc2)nc1Nc1ccc2oc(=O)[nH]c2c1` [Compound I-174, 5-(5-Methyl-2-phenylamino-pyrimidin-4-ylamino)-3H-benzooxazol-2-one] cannot be ordered by IC50: less than 0.5 µM for the first, less than 0.5 µM for the second.

First: Cc1cnc(Nc2cccc(Br)c2)nc1Nc1ccc2oc(=O)[nH]c2c1 [Compound I-175, 5-[2-(3-Bromo-phenylamino)-5-methyl-pyrimidin-4-ylamino]-3H-benzooxazol-2-one]
Second: Cc1cc(Nc2ncc(C)c(Nc3ccc4oc(=O)[nH]c4c3)n2)c(C)cc1Cl [Compound I-176, 5-[2-(4-Chloro-2,5-dimethyl-phenylamino)-5-methyl-pyrimidin-4-ylamino]-3H-benzooxazol-2-one]
The IC50 of the first is lower: less than 0.5 µM for the first, 0.5 to 5 µM for the second.

With `Cc1cnc(Nc2ccc(OCC3CCCCC3)c(C(F)(F)F)c2)nc1Nc1ccc2oc(=O)[nH]c2c1` [Compound I-179, 5-[2-(4-Cyclohexylmethoxy-3-trifluoromethyl-phenylamino)-5-methyl-pyrimidin-4-ylamino]-3H-benzooxazol-2-one] the IC50 was greater than 10 µM.
